According to patent publication US20250368646A1, “TRICYCLIC FUSED WRN INHIBITORS” (Nimbus Wadjet, Inc., priority 2024, published 2025):

How the values were obtained:
[1] = target: T1, human Werner helicase (WRN-BV08, amino acids 517-1235 with L1074F point mutation) (Homo sapiens, UniProt Q14191, L1074F); assay: ADP-Glo WRN helicase ATPase inhibition assay; assay type: biochemical; conditions: 0.15 nM WRN, 5 μM ATP, 0.1 nM DNA duplex; 15 minutes preincubation, 60 minutes at 25° C.; read-out: ADP-Glo_hWRN_IC50
T1 construct: [pFastBac1-WRN-(517-1235 L1074F)-TEV-8His]; 8xHis (C, cleaved yes); TEV cleavage site (ENLYFQG) (C); made in house; host or cells: Sf9 insect cells (baculovirus, pFastBac)
T1 sequence (Q14191 with tags, fused parts or gaps L1074F): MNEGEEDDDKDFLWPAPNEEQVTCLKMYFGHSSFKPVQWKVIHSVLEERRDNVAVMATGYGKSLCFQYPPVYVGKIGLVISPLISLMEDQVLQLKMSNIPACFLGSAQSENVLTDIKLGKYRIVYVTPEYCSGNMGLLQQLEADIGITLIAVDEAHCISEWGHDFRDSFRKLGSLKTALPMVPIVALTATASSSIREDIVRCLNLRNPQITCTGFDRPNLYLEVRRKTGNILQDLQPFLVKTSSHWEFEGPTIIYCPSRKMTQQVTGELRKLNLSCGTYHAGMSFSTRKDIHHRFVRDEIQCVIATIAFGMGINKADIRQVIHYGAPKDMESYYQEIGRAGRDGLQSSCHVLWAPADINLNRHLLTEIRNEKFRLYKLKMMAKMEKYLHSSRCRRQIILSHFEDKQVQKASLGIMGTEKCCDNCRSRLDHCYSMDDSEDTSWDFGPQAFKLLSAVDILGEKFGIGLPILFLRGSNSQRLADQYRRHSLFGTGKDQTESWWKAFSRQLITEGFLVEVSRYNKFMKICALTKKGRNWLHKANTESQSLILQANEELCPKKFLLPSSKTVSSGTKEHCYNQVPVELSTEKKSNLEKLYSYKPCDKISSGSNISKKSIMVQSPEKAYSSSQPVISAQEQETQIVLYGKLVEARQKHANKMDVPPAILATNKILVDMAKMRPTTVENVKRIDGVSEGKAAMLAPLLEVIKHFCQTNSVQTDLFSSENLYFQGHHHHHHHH
From the text: Bovine skin gelatin (BSG), dimethyl sulfoxide (DMSO), Pluronic F-127 and tris(2-carboxyethyl)phosphine hydrochloride solution (TCEP) were purchased from Sigma-Aldrich (St. Louis, MO) at the highest level of purity possible. Bicine buffer solution was purchased from Alfa Aesar (Tewksbury, MA) and compound NSC-617145 was purchased from Tocris (Minneapolis, MN). DNA duplex was synthesized at BGI (Shenzhen, China) and was composed of strand 1 with the sequence 5′-[…]-3′ (SEQ ID NO.: 1) and strand 2 with the sequence 5′-[…]-3′ (SEQ ID NO.: 2). DNA strands were annealed by heating to 95° C. for 5 minutes followed by slow cooling to room temperature. Compounds in 100% DMSO (0.1 μl) were spotted into a 384-well white polystyrene Optiplate-384 (Perkin Elmer; Waltham, MA) assay plate using a LabCyte Echo 550 (Agilent; Santa Clara, CA). DMSO (0.1 μl) was added to columns 12, rows A-H and column 24, rows I-P for the maximum signal control. Compound NSC-617145 (0.1 μl) was added to columns 12, rows I-P and 24, rows A-H for the minimum signal control (100% inhibition). Compounds/DMSO were preincubated for 15 minutes at 25° C. with 5 μl 2×WRN (BV08), prepared as described below, in assay buffer containing 20 mM Bicine (pH=7.5), 1 mM MgCl2, 10 mM KCl, 0.1% Pluronic F-127, 0.005% BSG, 1 mM TCEP. The reaction was initiated by the addition of 5 μl 2× substrate mixture in assay buffer and incubated for 60 minutes at 25° C. The final concentrations of the assay components were 0.15 nM WRN, 5 μM ATP, and 0.1 nM DNA duplex. The final DMSO concentration was 1% and the reference compound concentration (NSC-617145) used for the minimal signal control was 20 μM. The reaction was stopped by the addition of the ADP-Glo Kit components (Promega; Madison, WI) as directed and the relative luminescence units (RLU) were read on an Envision 2104 (Perkin Elmer; Waltham, MA). % inhibition calculation:
Where RLU=relative luminescence units, sample=signal in sample well, and MIN and MAX are the respective minimum and maximum signal controls.
Four-Parameter IC50 Fit Equation:
Where top and bottom are normally allowed to float but may be fixed at 100 or 0 respectively in a 3-parameter fit. Y is the % inhibition and X is the compound concentration.
Molecular Biology and virus production. The DNA encoding human Werner helicase (Uniprot Q14191, amino acids 517-1235 with L1074F point mutation) was generated with codon-optimization for E. coli expression and subcloned into the pFastBac vector with a TEV cleavable 8×His tag (SEQ ID NO: 5) (WRN-BV08). The baculovirus from the expression plasmid WRN-BV08 was generated from transfection and amplification following the manufacturer's instructions.
Sf9 cells grown in SF900II media were infected with 1:200 WRN-BV08 P2 virus and incubated for protein expression for 72 h at 27° C. The WRN protein was purified using the following protocol. The cell pellets were thawed and resuspended in buffer A (50 mM Tris, pH 7.5, 500 mM NaCl, 1 mM TCEP, 10% Glycerol) supplemented with 0.5% CHAPS, 1 mM PMSF, […] Leupeptin, 1 μg/ml Pepstatin, and the Pierce Universal Nuclease and cocktail tablet. Cleared lysates were loaded onto a Ni Sepharose™ excel column and washed with buffer A and bound protein was eluted with buffer A supplemented with 300 mM imidazole. The eluted protein was dialyzed against buffer A and digested by His-tagged TEV (1:5 ratio) overnight at 4° C. ZnCl2 was added into the sample at final 15 μM before loading onto a second Ni Sepharose™ excel column. Untagged WRN protein was eluted from the column with buffer A supplemented with 20 mM imidazole, dialyzed overnight into buffer B (50 mM Tris, pH 7.5, 1 mM TCEP, 10% Glycerol) supplemented with 150 mM NaCl and loaded onto a Heparin column. Proteins were eluted with a step gradient of buffer B supplemented with 150 mM, 200 mM, 300 mM and 500 mM NaCl. […]

[2] = system: p21 induction in HCT 116 cells; assay: p21 induction in cells (in-cell western, p21/GAPDH ratio); assay type: cell-based; conditions: Homo sapiens; HCT 116 colon carcinoma cell line, 24 h compound incubation; percent activation vs internal reference WRN inhibitor; read-out: P21_EC50
Protocol: The colon carcinoma cell line HCT 116 was obtained from ATCC and cultured in growth medium consisting of Mccoy's 5A Medium (Gibco 16600108) supplemented with […] (Transgene FS201-02) and 100 units/mL penicillin-streptomycin (Gibco 15140122) and maintained at 37° C. under […]. On the day of seeding, 2,000 cells in 30 μL of culture media were plated per well to Poly-D-Lysine 384 Well Black Clear Plates (Biocoat 356663) and incubated overnight at 37° C. under 5% CO2. The following day, compounds were serially diluted in DMSO for a total of 11 test concentrations. The typical starting concentration of cpds was 10 μM with 2-fold dilutions. Next, 150 nL of diluted compound was added in duplicate to the assay plate, using an Echo 655 (Labcyte). The plate was centrifuged at 500 RPM for 1 min and then incubated at 37° C. under 5% CO2 for 24 h. After 24 h, medium was removed, and cells were fixed by adding 40 µL of 4% paraformaldehyde solution to each well and incubated for 20 min at room temperature. The plate was then washed 4 times with 100 μL per well of wash buffer (PBS with 0.1% Tween-20) using a microplate washer. Next, 30 μL of ice-cold methanol was added to each well and the plate was incubated at −20° C. for 10 min. The plate was washed 4 times with 100 μL per well of wash buffer by a microplate washer, then 30 μL per well of blocking buffer (Intercept PBS blocking buffer (LI-COR 927-70001) with 0.05% Tween-20) was added and the plate was incubated at room temperature with shaking for 2 h. Next, to each test well, 20 μL of primary antibody solution (p21 Waf1/CIP (12D1) Rabbit mAb (Cell Signaling Technologies 2947) diluted 1:1000 and GAPDH (D4C6R) Mouse mAb (Cell Signaling Technologies 97166) diluted 1:2000 in blocking buffer) was added and the plate was placed at 4° C., overnight. The following day, the plate was washed 5 times with 100 μL per well of wash buffer using a microplate washer for 5 min. 20 μL per well of secondary antibody (IRDye 680CW Goat anti-Mouse IgG (H+L) (LI-COR 926-68070) diluted 1: 2000 in Blocking Buffer and IRDye 800CW Goat anti-Rabbit IgG (H+L) (LI-COR 926-32211) diluted 1: 2000 in Blocking Buffer) was then added and the plate was stored for 2 h in the dark at room temperature with shaking. The plate was then washed 4 times with 100 μL per well of wash buffer again using a microplate washer. Finally, the p21 signal and the GAPDH signal were quantified using a LI-COR Odyssey CLx Imager machine reading at 800 nm and 700 nm, respectively. Each plate contained DMSO control (low control) and an internal reference WRN inhibitor (high control) respectively. For quantitation, the 800 nm/700 nm ratio was calculated for each well to give fold p21 induction and then percent activation for each compound well was calculated as follows (100×(ratio cpd well-ratio low control)/(ratio high control−ratio low control)). EC50 values for each compound were generated after non-linear regression curve fitting using commercially available software.

| Compound | IC50 [1] [nM] | EC50 [2] [nM] |
| --- | --- | --- |
| COc1cc(-n2nc3c(=O)c(N4CCN(C(=O)c5ncnc(C)c5O)[C@H]5CC[C@@H]54)c4n(c3n2)[C@@H](C(=O)NC23CC(C5CC5)(C2)C3)C[C@H]4C)ccn1 (single isomer, unassigned) [Compound I-2] | 5 to 50 | ≤ 500 |
| Cc1nc2c(=O)c(N3CCN(C(=O)c4ncnc(C)c4O)[C@H]4CC[C@@H]43)c3n(c2nc1C)[C@@H](C(=O)Nc1ccc(C(F)(F)F)cc1Cl)C[C@H]3C (single isomer, unassigned) [Compound I-19] | 50 to 100 | 500 to 2000 |
| COc1cc(-n2nc3c(=O)c(N4CCN(C(=O)c5ncnc(C)c5O)[C@H]5CC[C@@H]54)c4n(c3n2)[C@H](C(=O)Nc2ccc(C(F)(F)F)cc2Cl)C[C@@H]4C)ccn1 (single isomer, unassigned) [Compound I-9] | 100 to 500 | 500 to 2000 |
| COc1cc(-n2nc3c(=O)c(N4CCN(C(=O)c5ncnc(C)c5O)[C@H]5CC[C@@H]54)c4n(c3n2)[C@@H](C(=O)Nc2ccc(C(F)(F)F)cc2F)C[C@H]4C)ccn1 (single isomer, unassigned) [Compound I-10] | 100 to 500 | 2000 to 5000 |
| COc1cc(-n2nc3c(=O)c(N4CCN(C(=O)c5ncnc(C)c5O)[C@H]5CC[C@@H]54)c4n(c3n2)[C@H](C(=O)NC23CC(C5CC5)(C2)C3)C[C@H]4C)ccn1 (single isomer, unassigned) [Compound I-3] | 50 to 100 | 500 to 2000 |
| Cc1nc2c(=O)c(N3CCN(C(=O)c4ncnc(C)c4O)[C@H]4CC[C@@H]43)c3n(c2nc1C)[C@H](C(=O)Nc1ccc(C(F)(F)F)cc1Cl)C[C@H]3C (single isomer, unassigned) [Compound I-20] | > 500 | > 5000 |
| Cc1cnc2c(n1)c(=O)c(N1CCN(C(=O)c3ncnc(C)c3O)[C@H]3CC[C@@H]31)c1n2[C@H](C(=O)Nc2ccc(C(F)(F)F)cc2Cl)C[C@@H]1C (single isomer, unassigned) [Compound I-7] | ≤ 5 | ≤ 500 |
| Cc1ncnc(C(=O)N2CCN(c3c4n(c5nn(C6CC6)nc5c3=O)[C@H](C(=O)Nc3ccc(C(F)(F)F)cc3Cl)C[C@@H]4C)[C@H]3CC[C@@H]32)c1O (single isomer, unassigned) [Compound I-22] | 100 to 500 | > 5000 |

Results, then the molecule that gave them:

| IC50 [1] [nM] | EC50 [2] [nM] | Compound |
| --- | --- | --- |
| ≤ 5 | ≤ 500 | Cc1ncnc(C(=O)N2CCN(c3c4n(c5nn(C6CC6)nc5c3=O)[C@H](C(=O)Nc3ccc(C(F)(F)F)cc3Cl)C[C@H]4C)[C@H]3CC[C@@H]32)c1O (relative stereo) [Compound I-27, (6R*,8R**)-N-[2-chloro-4-(trifluoromethyl)phenyl]-2-cyclopropyl-5-[(1S,6S)-5-(5-hydroxy-6-methylpyrimidine-4-carbonyl)-2,5-diazabicyclo[4.2.0]octan-2-yl]-6-methyl-4-oxo-2H,4H,6H,7H,8H-[1,2,3]triazolo[4,5-e]indolizine-8-carboxamide] |
| ≤ 5 | ≤ 500 | Cc1ncnc(C(=O)N2CCN(c3c4n(c5nn(C6=CCOCC6)nc5c3=O)[C@@H](C(=O)Nc3ccc(C(F)(F)F)cc3Cl)C[C@H]4C)[C@H]3CC[C@@H]32)c1O (single isomer, unassigned) [Compound I-23] |
| ≤ 5 | ≤ 500 | Cc1ncnc(C(=O)N2CCN(c3c4n(c5nn(C6CC6)nc5c3=O)[C@@H](C(=O)Nc3ccc(C(F)(F)F)cc3Cl)C[C@H]4C)[C@H]3CC[C@@H]32)c1O (single isomer, unassigned) [Compound I-21] |
| ≤ 5 | ≤ 500 | Cc1cnc2c(n1)c(=O)c(N1CCN(C(=O)c3ncnc(C)c3O)[C@H]3CC[C@@H]31)c1n2[C@H](C(=O)Nc2ccc(C(F)(F)F)cc2Cl)C[C@H]1C (single isomer, unassigned) [Compound I-11] |
| ≤ 5 | ≤ 500 | COc1cc(-n2nc3c(=O)c(N4CCN(C(=O)c5ncnc(C)c5O)[C@H]5CC[C@@H]54)c4n(c3n2)[C@@H](C(=O)Nc2ccc(C(F)(F)F)cc2Cl)C[C@H]4C)ccn1 (single isomer, unassigned) [Compound I-5] |
